Assay results: patent US8993718B2, “Methods and compositions for detecting and modulating O-glycosylation” (President and Fellows of Harvard College, priority 2007, dated 2015)
Entries after “also recorded” stand apart in the source; their conditions may differ. Non-standard residues stand in square brackets, D forms with d. Primed or numbered codes have the meaning given here. No end group written: not given here. *: point of attachment. FITC = O=C1OC2(c3ccc(O)cc3Oc3cc(O)ccc32)c2ccc(NC(=S)*)cc21; Aha′ = not defined here

Legend:
Type in all cases: biochemical
ppGalNAcT1 = biological target: T1, ppGalNAcT1 (Homo sapiens, UniProt Q10472); test: Protease protection assay for ppGalNAcT1
T1 sequence (Q10472 1-559): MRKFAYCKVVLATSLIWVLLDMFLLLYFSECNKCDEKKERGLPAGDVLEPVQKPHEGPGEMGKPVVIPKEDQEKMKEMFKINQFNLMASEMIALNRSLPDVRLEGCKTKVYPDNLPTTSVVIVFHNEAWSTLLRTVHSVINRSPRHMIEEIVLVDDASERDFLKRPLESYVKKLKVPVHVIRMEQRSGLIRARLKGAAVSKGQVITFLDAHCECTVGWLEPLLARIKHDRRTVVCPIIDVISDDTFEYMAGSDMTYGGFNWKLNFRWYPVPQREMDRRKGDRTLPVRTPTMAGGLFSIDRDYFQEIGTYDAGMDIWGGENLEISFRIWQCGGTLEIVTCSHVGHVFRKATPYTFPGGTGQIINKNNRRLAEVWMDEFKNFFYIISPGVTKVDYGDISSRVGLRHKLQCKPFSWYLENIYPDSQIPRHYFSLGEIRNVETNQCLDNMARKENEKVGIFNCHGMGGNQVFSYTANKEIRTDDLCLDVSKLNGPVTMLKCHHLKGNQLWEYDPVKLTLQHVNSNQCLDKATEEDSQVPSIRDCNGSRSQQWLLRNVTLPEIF
Procedure: (§1) There are multiple isoforms of the enzyme polypeptide N-acetylgalactosaminyltranferases (ppGalNAcTs). Activity of ppGalNAcTs are illustrated in FIG. 14. Using assay methods as described above, peptide substrates for ppGalNAcTs were prepared and used to assay to identify modulators of ppGalNAcTs activity. Peptide substrates EPGPTEAPK (SEQ ID NO:25) and EDAVTPGPK (SEQ ID NO:26) were prepared (see FIG. 15) and utilized to assay for modulators of the enzymes. Each peptide substrate include a proteinase K cleavage site. The identified compound SEQ ID NO:25 is a general substrate for ppGalNAcTs and identified compound SEQ ID NO:26 is a selective substrate for the enzyme ppGalNAcT1. Assays were run and alterations in the rate and/or amount of cleavage by proteinase K was determined. […] The difference in cleavage permitted use of the assay to identify compounds that inhibit glycosylation of the substrate by ppGalNAcTs. Additional inhibitory compounds identified using the assay include Compound 24 and Compound 27 (see Table 1).
(§2) It was determined that the assay could also be used to identify isoform selective inhibitors. […] The presence of the inhibitor disrupted crystal growth of the ppGalNAcT2.

ppGalNAcTs = test: Protease protection assay for ppGalNAcTs (general)
Procedure: as §1

ppGalNAcT2 = ppGalNAcT2 (Homo sapiens, UniProt Q10471); test: Protease protection assay for ppGalNAcT2
Procedure: as §1, §2

[1] = biological target: T2, O-Linked N-acetylglucosaminyltransferase (OGT) (Homo sapiens, UniProt O15294); test: Glycosylation of CK2-derived polypeptide substrates by OGT, quantified by LC/MS; details: more soluble variant vs earlier polypeptides
T2 sequence (O15294 1-1046): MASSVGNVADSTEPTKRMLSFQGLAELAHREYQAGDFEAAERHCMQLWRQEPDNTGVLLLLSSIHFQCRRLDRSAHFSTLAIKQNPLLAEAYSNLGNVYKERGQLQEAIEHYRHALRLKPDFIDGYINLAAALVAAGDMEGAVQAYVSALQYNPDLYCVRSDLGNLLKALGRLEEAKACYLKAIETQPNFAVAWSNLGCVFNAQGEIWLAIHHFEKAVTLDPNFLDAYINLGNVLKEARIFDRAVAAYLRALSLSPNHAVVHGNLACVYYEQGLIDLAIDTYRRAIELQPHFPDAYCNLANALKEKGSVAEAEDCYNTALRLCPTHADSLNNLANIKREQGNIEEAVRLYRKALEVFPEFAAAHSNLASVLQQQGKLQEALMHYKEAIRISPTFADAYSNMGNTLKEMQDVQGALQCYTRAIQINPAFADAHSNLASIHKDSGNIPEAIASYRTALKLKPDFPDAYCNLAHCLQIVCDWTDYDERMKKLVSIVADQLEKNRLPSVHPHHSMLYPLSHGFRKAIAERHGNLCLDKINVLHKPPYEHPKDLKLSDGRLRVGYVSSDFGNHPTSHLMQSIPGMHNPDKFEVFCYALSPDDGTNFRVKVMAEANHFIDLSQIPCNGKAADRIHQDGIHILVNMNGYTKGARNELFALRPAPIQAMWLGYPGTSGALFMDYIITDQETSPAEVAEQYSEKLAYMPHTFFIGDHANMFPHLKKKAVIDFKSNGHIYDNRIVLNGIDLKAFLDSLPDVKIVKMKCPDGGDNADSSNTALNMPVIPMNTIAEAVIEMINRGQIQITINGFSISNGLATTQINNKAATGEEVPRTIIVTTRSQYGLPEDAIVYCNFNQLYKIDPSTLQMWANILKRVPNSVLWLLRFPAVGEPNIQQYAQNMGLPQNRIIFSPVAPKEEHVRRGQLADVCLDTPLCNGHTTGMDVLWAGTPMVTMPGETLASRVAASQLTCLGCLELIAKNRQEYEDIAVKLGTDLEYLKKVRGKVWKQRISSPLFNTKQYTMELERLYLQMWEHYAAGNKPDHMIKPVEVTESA
Procedure: To address the first requirement, a panel of polypeptides was synthesized based on a truncated version of the CKII polypeptide [CKII peptide PGGSTPVSSNAMM (SEQ ID NO:20)]. The polypeptide was modified from the native sequence in several ways. First, a fluorescein was installed on the N-terminus during synthesis. Second, a lysine was added to the C-terminus so that a second dye or quencher could be installed by reaction with the appropriate N-hydroxysuccinimidyl ester. These modifications allowed two different FRET approaches. The first approach required the installation of a coumarin derivative on the polypeptide. The second required installation of a quencher molecule, which measured total fluorescence intensity. (See Examples 2 and 3). Finally, the residues on either side of the glycosylated serine of the truncated CK2 polypeptide were changed to phenylalanine, leucine or arginine to introduce proteolytic cleavage sites for common proteases (such as trypsin, chymotrypsin and thermolysin) that were not present in the native sequence. It was reasoned that cleavage adjacent to the glycosylation site would yield the largest difference in the rate of proteolysis between glycosylated and native polypeptides. This series of polypeptides was synthesized and screened for OGT activity using by LC/MS. Peak integration (measured at 445 nm) was used to quantitative products and reactants and mass spectrometry was used to confirm peak identity. The results are presented in Table 2 and some of the peptides (peptide 4.1, 4.4, and 4.5 top to bottom) are illustrated in FIG. 2.
All polypeptides were purchased from Tufts University core facility (Boston, Mass.). The mass of crude product was verified and the polypeptides were labeled under the following conditions: Polypeptide was dissolved in 250 mM NaHCO3 buffer, pH 8.2 at a 5 mM concentration and the appropriate NHS-Ester (0.5 eq) was dissolved in DMSO (a volume of 1/10 of the aqueous buffer was used). The DMSO solution was quickly added to the peptide and the reaction proceeded at room temperature for 30 minutes. This was repeated 2 more times (four more times for polypeptide 4.10). The reaction was monitored by LC/MS. LCMS conditions for polypeptides 4.1-4.8—Agilent Eclipse 5 μm XD8-C8 column, 0→100% CH3CN+0.1% formic acid over 20 minutes. LCMS conditions for polypeptides 4.9-4.10—Agilent Eclipse 5 μm XD8-C8 column, 0→100% CH3CN+0.1% NH4OH over 20 minutes. Each polypeptide was purified by preparative HPLC. Conditions for polypeptides 4.1-4.8 were: —Phenomonex Luna C18 5 μm column, 0→100% CH3CN+0.1% TFA over 40 minutes. Conditions for polypeptides 4.9-4.10 were: —Phenomonex Luna C18 5 μm column, 0→100% CH3CN+0.1% NH4OH over 40 minutes. Products were confirmed by LC/MS. Preparative Glycosylation of Labeled Polypeptides: Purified FRET labeled polypeptides were added (20-50 μM final concentration) to assay buffer (50 mM Tris, 20 mM CaCl2, 0.05% Tween-20, 0.05% NP-40, pH=7.8), 200 μM UDP-GlcNAc, 0.05 units of alkaline phosphatase, and 5 μM OGT. Reactions were monitored using LCMS: conditions for polypeptides 4.1-4.8—Agilent Eclipse 5 μm XD8-C8 column, 10→60% CH3CN+0.1% formic acid over 20 minutes. LCMS conditions for polypeptides 4.9-4.10—Agilent Eclipse 5 μm XD8-C8 column, 10→60% CH3CN+0.1% NH4OH over 20 minutes, and when complete were purified using the same column and conditions. Polypeptides 4.1-4.8 were quantitated by absorption at 492 nm using an extinction coefficient of 86,000 cm^−1M^−1; polypeptide 4.9 was quantitated by absorption at 530 nm using an extinction coefficient of 26,000 cm^−1M^−1; polypeptide 4.10 was quantitated by absorption at 530 nm using an extinction coefficient of 52,000 cm^−1M^−1. Fluorescence Resonance Energy Transfer (FRET)-Peptide Approach #1

ppGalNAcT2, sequence (Q10471 whole entry): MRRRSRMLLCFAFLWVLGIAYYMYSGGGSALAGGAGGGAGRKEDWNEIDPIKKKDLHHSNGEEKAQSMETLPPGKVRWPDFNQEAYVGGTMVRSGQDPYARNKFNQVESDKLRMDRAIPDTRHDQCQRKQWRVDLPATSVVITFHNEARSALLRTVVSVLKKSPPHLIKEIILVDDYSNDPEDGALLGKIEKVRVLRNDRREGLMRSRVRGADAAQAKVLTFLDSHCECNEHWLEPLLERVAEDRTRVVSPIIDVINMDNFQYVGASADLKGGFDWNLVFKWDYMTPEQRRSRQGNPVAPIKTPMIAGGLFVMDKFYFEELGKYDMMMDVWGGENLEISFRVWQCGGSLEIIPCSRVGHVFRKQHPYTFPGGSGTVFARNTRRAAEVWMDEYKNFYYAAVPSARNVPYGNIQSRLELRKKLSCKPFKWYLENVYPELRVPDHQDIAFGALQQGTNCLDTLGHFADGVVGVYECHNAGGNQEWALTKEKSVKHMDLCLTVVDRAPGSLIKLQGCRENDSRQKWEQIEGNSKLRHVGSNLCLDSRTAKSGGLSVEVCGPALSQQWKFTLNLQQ

## O=C(O)CCCN1C(=O)C(O)=C(C(=O)/C=C\c2ccccc2)C1c1ccccc1 (stereo not shown) [Compound 24]
ppGalNAcT1
  inhibition of ppGalNAcT1 (% glycosylation, FIG. 18): inhibits
ppGalNAcTs
  inhibition of ppGalNAcTs: inhibitory; also recorded: inhibitors
ppGalNAcT2
  inhibition of ppGalNAcT2 (% glycosylation, FIG. 18): inhibits

## O=C1NC(=O)N(Cc2ccco2)C(=O)/C1=C\c1ccco1 [Compound 25]
ppGalNAcT2; FIG. 18B
  isoform selectivity ppGalNAcT2 vs ppGalNAcT1: more selective inhibitor for ppGalNAcT2 than for ppGalNAcT1; also recorded: more selectively inhibits ppGalNAcT2 than ppGalNAcT1

## O=C(O)CCCCCn1c(SCC(=O)c2ccc(O)c(O)c2)nc2ccsc2c1=O [Compound 27]
ppGalNAcTs
  inhibition of ppGalNAcTs: inhibitory; also recorded: inhibitors

## O=C1NC(=S)NC(=O)C1=C/C=C\c1ccco1 [Compound 26]
ppGalNAcTs
  inhibition of ppGalNAcTs: inhibitors

## FITC(Aha)STPVSRANMK(QXL ™ 520)R K(QXL ™ 520) ({FITC}-[Aha′]STPVSRANMK(QXL 520)RK(QXL 520); reading uncertain; also: printed as FITC(Aha)STPVSRANMK(QXL ™ 520)R K(QXL ™ 520)) [Polypeptide 4.10]
[1]
  increase of glycosylation rate: 2-3 fold
